In patent US20260232767A1, “INTERLEUKIN-23 RECEPTOR ANTAGONIST PEPTIDES FOR USE IN THE TREATMENT OF PSORIASIS” (Janssen Pharmaceutica NV, priority 2023, published 2026):

System: subjects with moderate-to-severe plaque psoriasis
Assay: PASI response, Example 1 16-week dose-ranging study
Assay type: in vivo, human
Experimental: The Psoriasis Area and Severity Index (PASI) is a system used for assessing and grading the severity of psoriatic lesions and their response to therapy. In the PASI system, the body is divided into four regions: the head, trunk, upper extremities, and lower extremities. Each of these areas is assessed and scored separately for erythema, induration, and scaling, which are each rated on a scale of 0 to 4 and extent of involvement on a scale of 0 to 6. The PASI produces a numeric score (a “PASI score”) that can range from 0 to 72. A higher score indicates more severe disease.
This was a randomized, double-blind, placebo-controlled, dose-ranging, parallel group, multicenter, interventional study in subjects with moderate-to-severe plaque psoriasis. A target of 240 subjects were enrolled in this study with 40 subjects planned per intervention group.
Clinician-reported outcomes including Psoriasis Area and Severity Index (PASI), Body Surface Area (BSA), Investigator's Global Assessment (IGA), Nail Psoriasis Area and Severity Index (NAPSI), Fingernail Physician's Global Assessment (f-PGA), Static Physician's Global Assessment of Genitalia (s-PGA-G), Physician's Global Assessment of Hands and/or Feet (hf-PGA), and Scalp Specific Investigator Global Assessment (ss-IGA) were obtained at Week 0, 8, and 16. PASI and IGA were also obtained at Weeks 1, 2, 4, and 12, and at Week 20, four weeks after the administration of the tablets has stopped.
The primary efficacy endpoint was the proportion of participants achieving a PASI 75 response at Week 16, defined as at least a 75% reduction from baseline in PASI total score.
For the primary analysis, composite strategy (non-responder imputation) was applied to address intercurrent event #1 (Discontinuation of study intervention due to lack of efficacy or due to an AE of worsening of psoriasis) and #2 (initiation of a protocol-prohibited medication or therapy that could improve psoriasis); and treatment policy strategy (observed data) was applied to intercurrent event #3 (Discontinuation of study intervention due to other reasons). Participants with missing data after application of ICEs are also considered as non-responders.
In addition to the response analysis, pairwise comparisons of each treatment group versus the placebo group were performed for the primary endpoint of PASI 75 at Week 16. Pairwise comparisons were not adjusted for multiplicity. The Cochran-Mantel-Haenszel chi-square statistic stratified by baseline weight category (≤90 kg, >90 kg) at a 2-sided significance level of 0.05 was used (Table 2).

[1] = 100 mg BID, Week 16, trough plasma conc Q1 to <Q2
[2] = 100 mg BID, Week 16, trough plasma conc Q2 to <Q3
[3] = 100 mg BID, Week 16, trough plasma conc ≥Q3
[4] = 100 mg QD, Week 16, peak plasma conc. <Q1, N=2
[5] = 100 mg QD, Week 16, peak plasma conc. Q1 to <Q2, N=2
[6] = 100 mg QD, Week 16, peak plasma conc. Q2 to <Q3, N=2
[7] = 100 mg QD, Week 16, peak plasma conc. ≥Q3, N=2
[8] = 100 mg QD, Week 16, trough plasma conc <Q1
[9] = 100 mg QD, Week 16, trough plasma conc Q1 to <Q2
[10] = 100 mg QD, Week 16, trough plasma conc Q2 to <Q3
[11] = 100 mg QD, Week 16, trough plasma conc ≥Q3
[12] = Combined doses, Week 16, peak plasma conc. <Q1, N=10
[13] = Combined doses, Week 16, peak plasma conc. Q1 to <Q2, N=11
[14] = Combined doses, Week 16, peak plasma conc. Q2 to <Q3, N=10
[15] = Combined doses, Week 16, peak plasma conc. ≥Q3, N=11
[16] = Combined doses, Week 16, trough plasma conc <Q1
[17] = Combined doses, Week 16, trough plasma conc Q1 to <Q2

With `CC(=O)NCCCC[C@@H]1NC(=O)[C@H](Cc2c[nH]c3c(C)cccc23)NC(=O)[C@H]([C@@H](C)O)NC(=O)[C@H](CC(N)=O)NC(=O)[C@@H](NC(C)=O)C(C)(C)SSC(C)(C)[C@@H](C(=O)N[C@@H](Cc2ccc(OCCN)cc2)C(=O)N[C@@H](Cc2ccc3ccccc3c2)C(=O)NC2(C(=O)N[C@@H](CCC(=O)O)C(=O)N[C@@H](CC(N)=O)C(=O)N[C@@H](Cc3cccnc3)C(=O)N(C)CC(N)=O)CCOCC2)NC1=O` [IL-23 receptor antagonist peptide, Ac-[Pen]*-N-T-[W(7-Me)]-[Lys(Ac)]-[Pen]*-Phe[4-(2-aminoethoxy)]-[2-Nal]-[THP]-E-N-[3-Pal]-Sarc-NH2 (*[Pen]-[Pen]* formdisulfidebond)] the “PASI 100% Improvement, subjects” value [1] was 2 (40.0%), the “PASI ≥75% Improvement, subjects” value [1] was 4 (80.0%) and the “PASI ≥90% Improvement, subjects” value [1] was 3 (60.0%). The “PASI 100% Improvement, subjects” value [2] was 2 (40.0%), the “PASI ≥75% Improvement, subjects” value [2] was 5 (100.0%) and the “PASI ≥90% Improvement, subjects” value [2] was 3 (60.0%). For the same compound, the “PASI 100% Improvement, subjects” value [3] was 2 (40.0%), the “PASI ≥75% Improvement, subjects” value [3] was 4 (80.0%) and the “PASI ≥90% Improvement, subjects” value [3] was 4 (80.0%). The “Subjects achieving PASI 75” value (100 mg QD, Week 4) was 16.3%, the “PASI 75 treatment difference vs placebo” value (100 mg QD, Week 16) was 55.8% and the “PASI 90 treatment difference vs placebo” value (100 mg QD, Week 16) was 44.2% (28.6%,. The “PASI 100 treatment difference vs placebo” value (100 mg QD, Week 16) was 23.3% (10.7%,, the “Subjects achieving PASI 90” value (100 mg QD, Week 16) was 20 (46.5%) and the “Subjects achieving PASI 100” value (100 mg QD, Week 16) was 10 (23.3%). The “PASI 75, %” value (100 mg QD, Week 16, N=43) was 65.1%, the “PASI 90, %” value (100 mg QD, Week 16, N=43) was 46.5% and the “PASI 100, %” value (100 mg QD, Week 16, N=43) was 23.3%. For the same compound, the “PASI 100% Improvement, n subjects” value [4] was 0, the “PASI ≥75% Improvement, % subjects” value [4] was “(100.0%)” and the “PASI ≥75% Improvement, n subjects” value [4] was 2. For the same compound, the “PASI ≥90% Improvement, % subjects” value [4] was “(50.0%)”, the “PASI ≥90% Improvement, n subjects” value [4] was 1 and the “PASI 100% Improvement, % subjects” value [5] was “(50.0%)”. For the same compound, the “PASI 100% Improvement, n subjects” value [5] was 1, the “PASI ≥75% Improvement, % subjects” value [5] was “(100.0%)” and the “PASI ≥75% Improvement, n subjects” value [5] was 2. The “PASI ≥90% Improvement, % subjects” value [5] was “(50.0%)”, the “PASI ≥90% Improvement, n subjects” value [5] was 1 and the “PASI 100% Improvement, n subjects” value [6] was 0. For the same compound, the “PASI ≥75% Improvement, % subjects” value [6] was “(50.0%)”, the “PASI ≥75% Improvement, n subjects” value [6] was 1 and the “PASI ≥90% Improvement, % subjects” value [6] was “(50.0%)”. For the same compound, the “PASI ≥90% Improvement, n subjects” value [6] was 1, the “PASI 100% Improvement, n subjects” value [7] was 0 and the “PASI ≥75% Improvement, n subjects” value [7] was 1. For the same compound, the “PASI ≥90% Improvement, % subjects” value [7] was “(50.0%)”, the “PASI ≥90% Improvement, n subjects” value [7] was 1 and the “PASI 100% Improvement, subjects” value [8] was 2 (40.0%). For the same compound, the “PASI ≥75% Improvement, subjects” value [8] was 3 (60.0%), the “PASI ≥90% Improvement, subjects” value [8] was 3 (60.0%) and the “PASI 100% Improvement, subjects” value [9] was 0. For the same compound, the “PASI ≥75% Improvement, subjects” value [9] was 3 (60.0%), the “PASI ≥90% Improvement, subjects” value [9] was 3 (60.0%) and the “PASI 100% Improvement, subjects” value [10] was 1 (20.0%). The “PASI ≥75% Improvement, subjects” value [10] was 3 (60.0%), the “PASI ≥90% Improvement, subjects” value [10] was 2 (40.0%) and the “PASI 100% Improvement, subjects” value [11] was 1 (20.0%). For the same compound, the “PASI ≥75% Improvement, subjects” value [11] was 3 (60.0%), the “PASI ≥90% Improvement, subjects” value [11] was 2 (40.0%) and the “PASI 100% Improvement, n subjects” value [12] was 0. The “PASI ≥75% Improvement, n subjects” value [12] was 4, the “PASI ≥90% Improvement, % subjects” value [12] was “(30.0%)” and the “PASI ≥90% Improvement, n subjects” value [12] was 3. The “PASI 100% Improvement, % subjects” value [13] was “(18.2%)”, the “PASI 100% Improvement, n subjects” value [13] was 2 and the “PASI ≥75% Improvement, n subjects” value [13] was 10. The “PASI ≥90% Improvement, % subjects” value [13] was “(63.6%)”, the “PASI ≥90% Improvement, n subjects” value [13] was 7 and the “PASI 100% Improvement, % subjects” value [14] was “(10.0%)”. For the same compound, the “PASI 100% Improvement, n subjects” value [14] was 1, the “PASI ≥75% Improvement, n subjects” value [14] was 7 and the “PASI ≥90% Improvement, % subjects” value [14] was “(60.0%)”. For the same compound, the “PASI ≥90% Improvement, n subjects” value [14] was 6, the “PASI 100% Improvement, % subjects” value [15] was “(36.4%)” and the “PASI 100% Improvement, n subjects” value [15] was 4. The “PASI ≥75% Improvement, n subjects” value [15] was 8, the “PASI ≥90% Improvement, % subjects” value [15] was “(63.6%)” and the “PASI ≥90% Improvement, n subjects” value [15] was 7. The “PASI 100% Improvement, subjects” value [16] was 7 (26.9%), the “PASI ≥75% Improvement, subjects” value [16] was 13 (50.0%) and the “PASI ≥90% Improvement, subjects” value [16] was 11 (42.3%). For the same compound, the “PASI 100% Improvement, subjects” value [17] was 4 (15.4%), the “PASI ≥75% Improvement, subjects” value [17] was 12 (46.2%) and the “PASI ≥90% Improvement, subjects” value [17] was 7 (26.9%).
